Read-outs that look alike come from different tables or passages of the source.
How the values were obtained:
intracellular MRSA = type: cell-based, Staphylococcus aureus; settings: for z-scoreMRSA+ mean: mean of 3 replicates; for z-scoreMRSA+ rep 1 / %GFP+ rep 1: replicate 1; for z-scoreMRSA+ rep 2 / %GFP+ rep 2: replicate 2; for z-scoreMRSA+ rep 3 / %GFP+ rep 3: replicate 3
Method in brief: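 HeLa cells infected with GFP-MRSA (MOI ~6.8), gentamicin-cleared, then incubated overnight at 37°C with inhibitors plus 5 µg/ml gentamicin; DMSO as negative control, triplicates. Flow cytometry gave % GFP-positive cells and cell count (viability surrogate); hits by plate z-score (MRSA ≤ -2, HeLa count ≥ -3).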

HeLa cells = experiment: Compound screen by flow cytometry: HeLa cell count as surrogate readout of cell viability (z-scoreHeLa); type: cell-based, human; settings: for z-scoreHeLa mean: mean of 3 replicates; for z-scoreHeLa rep 1 / cell count rep 1: replicate 1; for z-scoreHeLa rep 2 / cell count rep 2: replicate 2; for z-scoreHeLa rep 3 / cell count rep 3: replicate 3
Method in brief: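 HeLa cells were infected with GFP-MRSA (mean MOI 6.8 ± 4.6) for 1 h, and extracellular bacteria were killed with 30 µg/ml gentamicin. Cells were then incubated overnight with kinase inhibitors in 5 µg/ml gentamicin, in triplicate against DMSO controls. Flow-cytometric cell count served as a viability surrogate, expressed as a plate z-score.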

[1] = PKIS compound screen, Yes/No call
[2] = PKIS compound screen, Yes/No call (effect without cell death)
[3] = PKIS compounds raw data, MRSA-infected HeLa cells
[4] = PKIS compounds raw data, HeLa cell count
[5] = PKIS compound screen raw data, MRSA-infected HeLa cells
[6] = PKIS compound screen, MRSA-infected HeLa cells
[7] = PKIS compound screen, Yes/No call on z-scoreMRSA+
[8] = PKIS compound screen raw data, HeLa cell count
[9] = PKIS compound screen, HeLa cell count
[10] = PKIS compound screen, Yes/No call on z-scoreHeLa
[11] = compound screen, MRSA-infected HeLa cells
[12] = compound screen, HeLa cell count

SMILES | hit (intracellular MRSA; [2]) | %GFP+ rep 1 (intracellular MRSA; [3]) [%] | %GFP+ rep 2 (intracellular MRSA; [3]) [%] | %GFP+ rep 3 (intracellular MRSA; [3]) [%] | %GFP+ rep 1 (intracellular MRSA; [5]) [%] | %GFP+ rep 2 (intracellular MRSA; [5]) [%] | %GFP+ rep 3 (intracellular MRSA; [5]) [%] | z-scoreMRSA+ mean (intracellular MRSA; [6]) | z-scoreMRSA+ rep 1 (intracellular MRSA; [6]) | z-scoreMRSA+ rep 2 (intracellular MRSA; [6]) | z-scoreMRSA+ rep 3 (intracellular MRSA; [6]) | effect (intracellular MRSA; [7]) | cell count rep 1 (HeLa cells; [8]) | cell count rep 2 (HeLa cells; [8]) | cell count rep 3 (HeLa cells; [8]) | z-scoreHeLa mean (HeLa cells; [9]) | z-scoreHeLa rep 1 (HeLa cells; [9]) | z-scoreHeLa rep 2 (HeLa cells; [9]) | z-scoreHeLa rep 3 (HeLa cells; [9]) | cell death (HeLa cells; [10]) | other results
COC(=O)c1ccc2c(c1)C(=Cc1cc(Br)c(O)c(Br)c1)C(=O)N2 [GW405841X] | No | 13.2 | 13.6 | 14.0 | – | – | – | – | – | – | – | – | – | – | – | – | – | – | – | – | effect (intracellular MRSA; [1]): No; z-scoreMRSA+ mean (intracellular MRSA; PKIS compound screen): -0.17; z-scoreMRSA+ rep 1 (intracellular MRSA; PKIS compound screen): 0.00934; z-scoreMRSA+ rep 2 (intracellular MRSA; PKIS compound screen): 0.0349; z-scoreMRSA+ rep 3 (intracellular MRSA; PKIS compound screen): -0.56; cell death (HeLa cells; [1]): No; z-scoreHeLa mean (HeLa cells; PKIS compound screen): 1.55; z-scoreHeLa rep 1 (HeLa cells; PKIS compound screen): 0.63; z-scoreHeLa rep 2 (HeLa cells; PKIS compound screen): 2.17; z-scoreHeLa rep 3 (HeLa cells; PKIS compound screen): 1.84; cell count rep 1 (HeLa cells; [4]): 5478; cell count rep 2 (HeLa cells; [4]): 7140; cell count rep 3 (HeLa cells; [4]): 10804
O=C1Nc2ccc(C(=O)c3ccco3)cc2C1=Cc1cc(Cl)c(O)c(Cl)c1 [GW406108X] | No | – | – | – | 19.1 | 21.6 | 22.3 | 0.69 | 0.39 | 0.93 | 0.76 | No | 28408 | 39603 | 51964 | 1.33 | 1.26 | 0.90 | 1.82 | No | –
Nc1nc(-c2ccc3c(c2)C(=Cc2cc(Br)c(O)c(Br)c2)C(=O)N3)cs1 [GW407323A] | – | 16.4 | 13.5 | 13.8 | – | – | – | – | – | – | – | – | – | – | – | – | – | – | – | – | effect (intracellular MRSA; Yes/No call from z-scoreMRSA+): No; hit (intracellular MRSA; Yes/No: effect without cell death): No; z-scoreMRSA+ mean (intracellular MRSA; [11]): 0.14; z-scoreMRSA+ rep 1 (intracellular MRSA; [11]): 1.03; z-scoreMRSA+ rep 2 (intracellular MRSA; [11]): 0.0015; z-scoreMRSA+ rep 3 (intracellular MRSA; [11]): -0.62; cell count rep 1 (HeLa cells; [4]): 5658; cell count rep 2 (HeLa cells; [4]): 5858; cell count rep 3 (HeLa cells; [4]): 9419; cell death (HeLa cells; Yes/No call from z-scoreHeLa): No; z-scoreHeLa mean (HeLa cells; [12]): 1.06; z-scoreHeLa rep 1 (HeLa cells; [12]): 0.80; z-scoreHeLa rep 2 (HeLa cells; [12]): 1.20; z-scoreHeLa rep 3 (HeLa cells; [12]): 1.18
Cc1cc(-c2ccc3c(c2)CC[C@@H](N[C@@H](C)c2ccccc2)C3)cnc1N [GW412617A] | No | – | – | – | 20.0 | 21.4 | 20.6 | 0.60 | 0.68 | 0.86 | 0.25 | No | 42421 | 41709 | 47670 | 1.94 | 3.38 | 1.29 | 1.14 | No | –
O=C1Nc2ccc(-c3cccnc3)cc2C1=Cc1cc(Br)c(O)c(Br)c1 [GW429374A] | No | – | – | – | 14.3 | 14.7 | 15.6 | -1.18 | -1.13 | -1.15 | -1.27 | No | 24917 | 38643 | 50434 | 1.01 | 0.73 | 0.72 | 1.58 | No | –
Cc1cc(O)cc(C)c1/C=C/c1cncc(C(N)=O)c1 [GW435821X] | No | – | – | – | 14.7 | 15.8 | 16.5 | -0.94 | -1.00 | -0.82 | -1.00 | No | 9030 | 26110 | 32002 | -1.55 | -1.68 | -1.62 | -1.36 | No | –
c1ccc(-c2ccc3c(Nc4ccc5[nH]ccc5c4)ccnc3c2)nc1 [GW440138A] | No | 35.0 | 36.6 | 38.8 | – | – | – | – | – | – | – | – | – | – | – | – | – | – | – | – | effect (intracellular MRSA; [1]): No; z-scoreMRSA+ mean (intracellular MRSA; PKIS compound screen): 1.90; z-scoreMRSA+ rep 1 (intracellular MRSA; PKIS compound screen): 1.55; z-scoreMRSA+ rep 2 (intracellular MRSA; PKIS compound screen): 2.03; z-scoreMRSA+ rep 3 (intracellular MRSA; PKIS compound screen): 2.14; cell death (HeLa cells; [1]): No; z-scoreHeLa mean (HeLa cells; PKIS compound screen): 1.19; z-scoreHeLa rep 1 (HeLa cells; PKIS compound screen): 0.89; z-scoreHeLa rep 2 (HeLa cells; PKIS compound screen): 1.20; z-scoreHeLa rep 3 (HeLa cells; PKIS compound screen): 1.48; cell count rep 1 (HeLa cells; [4]): 7521; cell count rep 2 (HeLa cells; [4]): 7813; cell count rep 3 (HeLa cells; [4]): 7928

Source: article PMC10999543, “Identification of kinase modulators as host-directed therapeutics against intracellular methicillin-resistant Staphylococcus aureus” (Frontiers in Cellular and Infection Microbiology, 2024)
